Measurements as given in patent publication US20050043341A1, “3-'Hydroxy-(-4-trifluoromethylphenyl)-methyl-7-spirocyclobutyl-5,6,7 8-tetrahydroquinolin-5-ol derivatives and the use of the same as cholesterol ester transfer protein (cetp) inhibitors” (priority 2001, published 2005).

What was measured:
[1] = target: T1, CETP (Homo sapiens, UniProt P11597); assay: CETP fluorescence test; type: biochemical; conditions: CETP from human plasma, 37° C., 4 hours; read-out: IC50 (nM) Fluor. test
T1 construct: CETP is obtained in partially purified form from human plasma; from tissue; host or cells: human plasma
T1 sequence (P11597 18-493): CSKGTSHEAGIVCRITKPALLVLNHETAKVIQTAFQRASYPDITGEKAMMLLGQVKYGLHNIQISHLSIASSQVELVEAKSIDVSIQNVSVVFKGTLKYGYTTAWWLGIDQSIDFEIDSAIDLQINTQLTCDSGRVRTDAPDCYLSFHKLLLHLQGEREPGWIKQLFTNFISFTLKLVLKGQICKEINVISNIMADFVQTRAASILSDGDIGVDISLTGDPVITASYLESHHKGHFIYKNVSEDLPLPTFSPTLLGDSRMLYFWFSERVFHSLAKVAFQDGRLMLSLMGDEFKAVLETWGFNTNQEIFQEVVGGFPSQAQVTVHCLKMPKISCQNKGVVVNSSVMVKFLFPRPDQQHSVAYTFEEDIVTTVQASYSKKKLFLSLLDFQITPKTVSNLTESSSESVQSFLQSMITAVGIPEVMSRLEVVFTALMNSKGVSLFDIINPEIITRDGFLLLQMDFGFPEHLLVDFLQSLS
Experimental: (§1) CETP is obtained in partially purified form from human plasma by differential centrifugation and column chromatography and used for the test. To this end, human plasma is adjusted to a density of 1.21 g per ml using NaBr and centrifuged at 4° C. at 50000 rpm for 18 h. The bottom fraction (d>1.21 g/ml) is applied to a Sephadex® Phenyl-Sepharose 4B (Pharmacia) column, washed with 0.15 M NaCl/0.001 M tris HCl pH 7.4 and then eluted with dist. water. Die CETP-active fractions are pooled, dialysed against 50 mM Na acetate pH 4.5 and applied to a CM-Sepharose® (Pharmacia) column. The mixture is then eluted using a linear gradient (0-1 M NaCl). The pooled CETP fractions are dialysed against 10 mM TrisHCl pH 7.4 and then further purified by chromatography on a Mono Q® column (Pharmacia).
Measurement of the CETP-catalysed transfer of a fluorescent cholesterol ester between liposomes—modified according to the procedure of Bisgaier et al., J. Lipid Res. 34, 1625 (1993).
For the production of the donor liposomes, 1 mg of cholesteryl 4,4-difluoro-5,7-dimethyl-4-bora-3a,4a-diaza-s-indacene-3-dodecanoate (cholesteryl BODIPY® FL C12, Molecular Probes) is dissolved in 600 μl of dioxane with 5.35 mg of triolein and 6.67 mg of phosphatidylcholine with gentle warming in an ultrasonic bath and this solution is added very slowly with ultrasonication to 63 ml of 50 mM tris/HCl, 150 mM NaCl, 2 mM EDTA buffer pH 7.3 at RT.
The suspension is then ultrasonicated under an N2 atmosphere for 30 minutes in the Braukson ultrasonic bath at about 50 watts, the temperature being kept at about 20° C.
The acceptor liposomes are obtained analogously from 86 mg of cholesteryl oleate, 20 mg of triolein and 100 mg of phosphatidylcholine dissolved in 1.2 ml of dioxane and 114 ml of above buffer by ultrasonication at 50 watts (20° C.) for 30 minutes.
For testing, a test mix consisting of 1 part of above buffer, 1 part of donor liposomes and 2 parts of acceptor liposomes is used.
80 μl of test mix are treated with 1-3 μg of enriched CETP fraction, obtained from human plasma by means of hydrophobic chromatography, and 2 μl of the substance to be investigated in DMSO and incubated at 37° C. for 4 hours.
The change in the fluorescence at 485/535 nm is a measure of the CE transfer; the inhibition of the transfer in comparison to the control batch without substance is determined.

[2] = system: transgenic hCETP mice; assay: In vivo activity in transgenic hCETP mice (HDL); conditions: stomach tube
Experimental: In experiments for the determination of the oral action on lipoproteins and triglycerides, test substance is administered to transgenic mice using a stomach tube (Dinchuck, Hart, Gonzalez, Karmann, Schmidt, Wirak; BBA (1995), 1295, 301). Before the start of the experiment, blood is taken from the mice retroorbitally in order to determine cholesterol and triglycerides in the serum. The serum is obtained as described above for hamsters by incubation at 4° C. overnight and subsequent centrifugation at 6000×g. […] The change in the parameters measured is expressed as the percentage change compared with the starting value.

[3] = system: Syrian golden hamsters; assay: In vivo activity in Syrian golden hamsters (HDL cholesterol); conditions: perorally
Experimental: In experiments for the determination of the oral action on lipoproteins and triglycerides, test substance dissolved in DMSO and 0.5% suspended in Tylose are administered perorally by means of a stomach tube to Syrian golden hamsters bred in-house. For the determination of the CETP activity, before the start of the experiment blood is taken by retro-orbital puncture (about 250 μl). The test substances are then administered perorally by means of a stomach tube. The control animals receive identical volumes of solvent without test substance. The feed is then withdrawn from the animals and blood is taken at various times—up to 24 hours after substance administration—by puncture of the retroorbital venous plexus.
Clotting is terminated by incubation at 4° C. overnight, then centrifugation is carried out for 10 minutes at 6000×g. The content of cholesterol and triglycerides in the serum thus obtained is determined with the aid of modified commercially obtainable enzymatic tests (Ecoline 25 Cholesterol 1.14830.0001 Merck Diagnostica, Ecoline 25 Triglycerides 1.14856.0001 Merck Diagnostica). Serum is suitably diluted using physiological saline solution.
10 μl of serum dilution are treated with 200 μl of Ecoline 25 reagent in 96-hole plates and incubated for 10 minutes at room temperature. The optical density is then determined at a wavelength of 490 nm using an automatic plate reader. The triglyceride or cholesterol concentration contained in the samples is determined with the aid of a standard curve measured in parallel.
The determination of the content of HDL cholesterol is carried out after precipitation of the ApoB-containing lipoproteins (Sigma 352-4 HDL cholesterol reagent) according to the manufacturer's instructions.

[4] = target: T1, CETP; assay: CETP-SPA test; type: biochemical; conditions: 3H-cholesterol ester transfer from HDL to biotin-LDL, 37° C., 18 h
Experimental: as §1
50 ml of fresh human EDTA plasma are adjusted to a density of 1.12 using NaBr and centrifuged at 4° C. in a Ty 65 rotor at 50000 rpm for 18 h. The upper phase is used for the obtainment of cold LDL. The lower phase is dialysed against 3×41 of PDB buffer (10 mM tris/HCl pH 7.4, […], 1 mM EDTA, 0.02% NaN3). Per 10 ml of retentate volume, 20 μl of 3H-cholesterol (Dupont NET-725; 1 μC/μl dissolved in ethanol!) is then added and the mixture is incubated at 37° C. under N2 for 72 h.
The batch is then adjusted to the density 1.21 using NaBr and centrifuged at 20° C. in a Ty 65 rotor at 50000 rpm for 18 h. The upper phase is recovered and the lipoprotein fractions are purified by gradient centrifugation. To this end, the isolated, labelled lipoprotein fraction is adjusted to a density of 1.26 using NaBr. 4 ml each of this solution are covered in centrifuged tubes (SW 40 rotor) with a layer of 4 ml of a solution of density 1.21 and 4.5 ml of a solution of 1.063 (density solutions of PDB buffer and NaBr) and then centrifuged for 24 h at 38000 rpm and 20° C. in the SW 40 rotor. The intermediate layer lying between the density 1.063 and 1.21, containing the labelled HDL, is dialysed against 3×100 volumes of PDB buffer at 4° C.
The retentate contains radiolabelled ^3H-CE-HDL, which, adjusted to about 5×10^6 cmp per ml, is used for the test.
For testing of the CETP activity, the transfer of ^3H-cholesterol ester from human HD lipoproteins to biotinylated LD lipoproteins is measured.
The reaction is ended by addition of streptavidin-SPA®beads (Amersham) and the transferred radioactivity is determined directly in a liquid scintillation counter.
In the test batch, 10 μl of HDL-^3H-cholesterol ester (˜50000 cpm) are incubated at 37° C. for 18 h with 10 μl of biotin-LDL (Amersham) in 50 mM Hepes/0.15 M NaCl/0.1% bovine serum albumin/0.05% NaN3 pH 7.4 containing 10 μl of CETP (1 mg/ml) and 3 μl of solution of the substance to be tested (dissolved in 10% DMSO/1% RSA). 200 μl of the SPA-streptavidin bead solution (TRKQ 7005) are then added, incubated further with shaking for 1 h and then measured in a scintillation counter.
Corresponding incubations with 10 μl of buffer, 10 μl of CETP at 4° C. and 10 μl of CETP at 37° C. serve as controls.
The activity transferred in the control batches with CETP at 37° C. is rated as 100% transfer. The substance concentration at which this transfer is reduced to half is specified as the IC50 value.

SMILES | IC50 [1] | % HDL increase after 4 d (Dose: 4 × 10 mg/kg) [2] | % HDL increase after 24 h (Dose: 2 × 10 mg/kg) [3] | IC50 [4]
CC(C)c1nc2c(c(C3CCCC3)c1[C@@H](O)c1ccc(C(F)(F)F)cc1)[C@@H](O)CC1(CCC1)C2 [Example 69, (5S)-2-Isopropyl-4-cyclopentyl-3-[(S)-hydroxy-(4-trifluoromethylphenyl)-methyl]-7-spirocyclobutyl-5,6,7,8-tetrahydroquinolin-5-ol] | 70 nM | 28% | – | –
O[C@@H](c1ccc(C(F)(F)F)cc1)c1c(C2CCCC2)nc2c(c1C1CCCC1)[C@@H](O)CC1(CCC1)C2 [Example 71, (5S)-2,4-Dicyclopentyl-3-[(S)-hydroxy-(4-trifluoromethylphenyl)-methyl]-7-spirocyclobutyl-5,6,7,8-tetrahydroquinolin-5-ol] | 40 nM | – | 14% | –
O[C@@H](c1ccc(C(F)(F)F)cc1)c1c(C2CCCC2)nc2c(c1-c1ccc(F)cc1)[C@@H](O)CC1(CCC1)C2 [Example 80, (5S)-2-Cyclopentyl-4-(4-fluorophenyl)-3-[(S)-hydroxy-(4-trifluoromethylphenyl)-methyl]-7-spirocyclobutyl-5,6,7,8-tetrahydroquinolin-5-ol] | 9 nM | – | 17% | 5 nM
